US20240208934A1, “ULK1/2 INHIBITORS AND THEIR USE THEREOF” (LifeArc, priority 2021, published 2024)

Tested on: ULK
Experiment: ULK radiometric assay (33P incorporation onto MBP substrate, glass fiber capture filter)
Conditions: ULK Biochemical activity; 20 uM ATP, 0.2 mg/mL MBP; averages of at least two independent experiments
Protocol: ULK activity was measured using a radiometric assay, to measure the incorporation of radiolabelled ^33P onto MBP substrate using a glass fiber capture filter method. Reaction conditions were 0.2 mg/mL MBP, 20 uM ATP (0.25 μCi/well), 50 mM Tris HCl, pH7.5, 10 mM MgCl2, 0.1% beta-mercaptoethanol, 0.1 mM EGTA, 0.01% BSA. Ten point Half log Compound dilution series were prepared in 100% DMSO and added to the reaction to give final assay concentration of 10% DMSO. Compounds were tested in duplicate and values normalized to 10% DMSO only controls. The data were fitted to a four parameter fit equation and the IC50 values shown are averages of at least two independent experiments.

| Compound | IC50 |
| --- | --- |
| COc1cc2c(cc1Nc1ncc(C(F)(F)F)c(NCCCn3cccn3)n1)CNCC2 [Example 73, N2-(6-methoxy-1,2,3,4-tetrahydroisoquinolin-7-yl)-N4-(3-pyrazol-1-ylpropyl)-5-(trifluoromethyl)pyrimidine-2,4-diamine] | ≥ 1000 nM |
| CN1CCc2ccc(Nc3ncc(C4CC4)c(NCCCN4CCCC4=O)n3)cc2C1 [Example 10, 1-(3-((5-Cyclopropyl-2-((2-methyl-1,2,3,4-tetrahydroisoquinolin-7-yl)amino)pyrimidin-4-yl)amino)propyl)pyrrolidin-2-one] | < 200 nM |
| COc1cc2c(cc1Nc1ncc(C3CC3)c(NCCCN3CCCCC3=O)n1)CNCC2 [Example 75, 1-[3-[[5-Cyclopropyl-2-[(6-methoxy-1,2,3,4-tetrahydroisoquinolin-7-yl)amino]pyrimidin-4-yl]amino]propyl]piperidin-2-one] | 200 to 1000 nM |
| CN(C)CCCN(C)c1nc(Nc2ccc3c(c2)CCNC3)ncc1C(F)(F)F [Example 64, N4-[3-(dimethylamino)propyl]-N4-methyl-N2-(1,2,3,4-tetrahydroisoquinolin-6-yl)-5-(trifluoromethyl)pyrimidine-2,4-diamine] | 200 to 1000 nM |
| COc1nn(C)cc1Nc1ncc(C(F)(F)F)c(NCCCN2CCCCC2=O)n1 [Example 27, 1-[3-[[2-[(3-Methoxy-1-methyl-pyrazol-4-yl)amino]-5-(trifluoromethyl)pyrimidin-4-yl]amino]propyl]piperidin-2-one] | < 200 nM |
| CN(C)S(=O)(=O)c1cc2c(c(Nc3ncc(C(F)(F)F)c(NCCCN4CCCCC4=O)n3)c1)OCC2 [Example 50, N,N-dimethyl-7-[[4-[3-(2-oxo-1-piperidyl)propylamino]-5-(trifluoromethyl)pyrimidin-2-yl]amino]-2,3-dihydrobenzofuran-5-sulfonamide] | ≥ 1000 nM |
| COc1cc2c(cc1Nc1ncc(C(F)(F)F)c(NCC3CNCCO3)n1)CNCC2 (centres unmarked) [Example 78, N2-(6-methoxy-1,2,3,4-tetrahydroisoquinolin-7-yl)-N4-(morpholin-2-ylmethyl)-5-(trifluoromethyl)pyrimidine-2,4-diamine] | 200 to 1000 nM |
| O=C1CCCCN1CCCNc1nc(Nc2cc(S(=O)(=O)N3CCOCC3)cc3c2OCC3)ncc1C(F)(F)F [Example 51, 1-[3-[[2-[(5-Morpholinosulfonyl-2,3-dihydrobenzofuran-7-yl)amino]-5-(trifluoromethyl)pyrimidin-4-yl]amino]propyl]piperidin-2-one] | ≥ 1000 nM |
| O=C1CCCCN1CCCNc1nc(Nc2cc3c(cc2C(F)(F)F)CCNC3)ncc1C(F)(F)F [Example 45, 1-[3-[[5-(Trifluoromethyl)-2-[[6-(trifluoromethyl)-1,2,3,4-tetrahydroisoquinolin-7-yl]amino]pyrimidin-4-yl]amino]propyl]piperidin-2-one] | < 200 nM |
| CC(=O)N1CCc2cc(Cl)c(Nc3ncc(C(F)(F)F)c(NCCCN4CCCCC4=O)n3)cc2C1 [Example 56, 1-[3-[[2-[(2-Acetyl-6-chloro-3,4-dihydro-1H-isoquinolin-7-yl)amino]-5-(trifluoromethyl)pyrimidin-4-yl]amino]propyl]piperidin-2-one] | 200 to 1000 nM |
| COc1cc2c(cc1Nc1ncc(C3CC3)c(NCCCNC(=O)C3CCC3)n1)CNCC2 [Example 74, N-[3-[[5-cyclopropyl-2-[(6-methoxy-1,2,3,4-tetrahydroisoquinolin-7-yl)amino]pyrimidin-4-yl]amino]propyl]cyclobutanecarboxamide] | ≥ 1000 nM |
| CN1CCc2cc(Nc3ncc(C4CC4)c(NCCCN4CCCCC4=O)n3)ccc2C1 [Example 11, 1-(3-((5-Cyclopropyl-2-((2-methyl-1,2,3,4-tetrahydroisoquinolin-6-yl)amino)pyrimidin-4-yl)amino)propyl)piperidin-2-one] | < 200 nM |
| COc1cc(C(=O)N(C)C)ccc1Nc1ncc(C(F)(F)F)c(NCCCN2CCCCC2=O)n1 [Example 40, 3-Methoxy-N,N-dimethyl-4-[[4-[3-(2-oxo-1-piperidyl)propylamino]-5-(trifluoromethyl)pyrimidin-2-yl]amino]benzamide] | ≥ 1000 nM |
| FC(F)(F)c1cnc(Nc2ccc(CCN3CCCC3)cc2)nc1NCc1cc[nH]n1 [Example 86, N4-(1H-pyrazol-3-ylmethyl)-N2-[4-(2-pyrrolidin-1-ylethyl)phenyl]-5-(trifluoromethyl)pyrimidine-2,4-diamine] | 200 to 1000 nM |
| COc1cc2c(cc1Nc1ncc(C(F)(F)F)c(NCCCN3CCCCC3=O)n1)CN(C)CC2 [Example 24, 1-[3-[[2-[(6-Methoxy-2-methyl-3,4-dihydro-1H-isoquinolin-7-yl)amino]-5-(trifluoromethyl)pyrimidin-4-yl]amino]propyl]piperidin-2-one] | < 200 nM |

Further lines, results first:

| IC50 | Compound |
| --- | --- |
| < 200 nM | FC(F)(F)c1cnc(Nc2ccc3c(c2)CCNC3)nc1NCCc1cnc[nH]1 [Example 65, N4-[2-(1H-imidazol-5-yl)ethyl]-N2-(1,2,3,4-tetrahydroisoquinolin-6-yl)-5-(trifluoromethyl)pyrimidine-2,4-diamine] |
| 200 to 1000 nM | COc1cc(C(=O)N2CCN(C)CC2)ccc1Nc1ncc(C(F)(F)F)c(NCCCN2CCCCC2=O)n1 [Example 41, 1-[3-[[2-[2-Methoxy-4-(4-methylpiperazine-1-carbonyl)anilino]-5-(trifluoromethyl)pyrimidin-4-yl]amino]propyl]piperidin-2-one] |
| 200 to 1000 nM | FC(F)(F)c1cnc(Nc2ccc(N3CCOCC3)cc2)nc1NCCc1c[nH]cn1 [Example 91, N4-[2-(1H-imidazol-4-yl)ethyl]-N2-(4-morpholinophenyl)-5-(trifluoromethyl)pyrimidine-2,4-diamine] |
| 200 to 1000 nM | O=C(CCNc1nc(Nc2cccc(OC3CCNCC3)c2)ncc1C(F)(F)F)N1CCOCC1 [Example 80, 1-Morpholino-3-[[2-[3-(4-piperidyloxy)anilino]-5-(trifluoromethyl)pyrimidin-4-yl]amino]propan-1-one] |
| ≥ 1000 nM | O=C1CCCN1CCCNc1nc(Nc2ccc3c(c2)CNCC3)ncc1C(F)(F)F [Example 77, 1-[3-[[2-(1,2,3,4-Tetrahydroisoquinolin-7-ylamino)-5-(trifluoromethyl)pyrimidin-4-yl]amino]propyl]pyrrolidin-2-one] |
| 200 to 1000 nM | FC(F)(F)c1cnc(Nc2ccc(N3CCOCC3)cc2)nc1NCCC1CCNCC1 [Example 89, N2-(4-morpholinophenyl)-N4-[2-(4-piperidyl)ethyl]-5-(trifluoromethyl)pyrimidine-2,4-diamine] |
| < 200 nM | O=C(CCNc1nc(Nc2cc3c(cc2Cl)CNCC3)ncc1C(F)(F)F)N[C@@H](C1CC1)C(F)(F)F [Example 2, (S)-3-(2-(7-chloro-1,2,3,4-tetrahydroisoquinolin-6-ylamino)-5-(trifluoromethyl)pyrimidin-4-ylamino)-N-(1-cyclopropyl-2,2,2-trifluoroethyl)propanamide] |
| ≥ 1000 nM | O=C1CCCCN1CCCNc1nc(Nc2cccc3c2OCC3)ncc1C(F)(F)F [Example 31, 1-[3-[[2-(2,3-Dihydrobenzofuran-7-ylamino)-5-(trifluoromethyl)pyrimidin-4-yl]amino]propyl]piperidin-2-one] |
| < 200 nM | COc1cc2c(cc1Nc1ncc(C(F)(F)F)c(NCCCNC(=O)C3CCC3)n1)CNCC2 [Example 82, N-[3-[[2-[(6-methoxy-1,2,3,4-tetrahydroisoquinolin-7-yl)amino]-5-(trifluoromethyl)pyrimidin-4-yl]amino]propyl]cyclobutanecarboxamide] |
| < 200 nM | O=C1CCCCN1CCCNc1nc(Nc2cc3c(cc2Cl)CCNC3)ncc1C(F)(F)F [Example 43, 1-[3-[[2-[(6-Chloro-1,2,3,4-tetrahydroisoquinolin-7-yl)amino]-5-(trifluoromethyl)pyrimidin-4-yl]amino]propyl]piperidin-2-one] |
| < 200 nM | O=C1CCCCN1CCCNc1nc(Nc2ccc3c(c2)COCC3)ncc1C(F)(F)F [Example 25, 1-[3-[[2-(Isochroman-7-ylamino)-5-(trifluoromethyl)pyrimidin-4-yl]amino]propyl]piperidin-2-one] |
| 200 to 1000 nM | O=C1CCCCN1CCCNc1nc(Nc2cc(S(=O)(=O)N3CCNCC3)cc3c2OCC3)ncc1C(F)(F)F [Example 52, 1-[3-[[2-[(5-Piperazin-1-ylsulfonyl-2,3-dihydrobenzofuran-7-yl)amino]-5-(trifluoromethyl)pyrimidin-4-yl]amino]propyl]piperidin-2-one] |
| < 200 nM | Cc1cc2c(cc1Nc1ncc(C(F)(F)F)c(NCCCN3CCCCC3=O)n1)CNCC2 [Example 23, 6-methyl-7-[[4-[3-(2-oxo-1-piperidyl)propylamino]-5-(trifluoromethyl)pyrimidin-2-yl]amino]-3,4-dihydro-1H-isoquinoline] |
| < 200 nM | O=C1CCCCN1CCCNc1nc(Nc2ccc3c(c2)CNCC3)ncc1C(F)(F)F [Example 83, 1-[3-[[2-(1,2,3,4-Tetrahydroisoquinolin-7-ylamino)-5-(trifluoromethyl)pyrimidin-4-yl]amino]propyl]piperidin-2-one] |
| < 200 nM | CN1CCC(Oc2cccc(Nc3ncc(C(F)(F)F)c(NCCCN4CCCCC4=O)n3)c2)CC1 [Example 8, 1-[3-[[2-[3-[(1-Methyl-4-piperidyl)oxy]anilino]-5-(trifluoromethyl)pyrimidin-4-yl]amino]propyl]piperidin-2-one] |
| < 200 nM | CN1CCC(Oc2cccc(Nc3ncc(C4CC4)c(NCCCN4CCCCC4=O)n3)c2)CC1 [Example 16, 1-(3-((5-Cyclopropyl-2-((3-((1-methylpiperidin-4-yl)oxy)phenyl)amino)pyrimidin-4-yl)amino)propyl)piperidin-2-one] |
| 200 to 1000 nM | COc1cc(C(=O)NC2CCNCC2)ccc1Nc1ncc(C(F)(F)F)c(NCCCN2CCCCC2=O)n1 [Example 42, 3-Methoxy-4-[[4-[3-(2-oxo-1-piperidyl)propylamino]-5-(trifluoromethyl)pyrimidin-2-yl]amino]-N-(4-piperidyl)benzamide] |
